# Results as given in PubChem BioAssay (NCI).
#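 Method: 48-hour compound exposure of cells in 96-well plates, five concentrations, linear interpolation of endpoints. TGI: concentration producing complete growth inhibition.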
# Key:
# Assay in all cases: DTP human tumour cell line panel, 48 h
# 786-0 renal = system: 786-0 renal
# A498 renal = system: A498 renal
# A549 NSCLC = system: A549 NSCLC
# ACHN renal = system: ACHN renal
# BT-549 breast = system: BT-549 breast
# CAKI-1 renal = system: CAKI-1 renal
# CCRF-CEM leukemia = system: CCRF-CEM leukemia
# COLO 205 colon = system: COLO 205 colon
# DU-145 prostate = system: DU-145 prostate
# EKVX NSCLC = system: EKVX NSCLC
# HCC-2998 colon = system: HCC-2998 colon
# HCT-116 colon = system: HCT-116 colon
# HCT-15 colon = system: HCT-15 colon
# HL-60(TB) leukemia = system: HL-60(TB) leukemia
# HOP-62 NSCLC = system: HOP-62 NSCLC
# HOP-92 NSCLC = system: HOP-92 NSCLC
# HS 578T breast = system: HS 578T breast
# HT29 colon = system: HT29 colon
# IGROV1 ovarian = system: IGROV1 ovarian
# K-562 leukemia = system: K-562 leukemia
# KM12 colon = system: KM12 colon
# LOX IMVI melanoma = system: LOX IMVI melanoma
# M14 melanoma = system: M14 melanoma
# MALME-3M melanoma = system: MALME-3M melanoma
# MCF7 breast = system: MCF7 breast
# MDA-MB-231 breast = system: MDA-MB-231 breast
# MDA-MB-435 = system: MDA-MB-435
# MDA-N = system: MDA-N
# MOLT-4 leukemia = system: MOLT-4 leukemia
# NCI-H226 lung = system: NCI-H226 lung
# NCI-H23 lung = system: NCI-H23 lung
# NCI-H522 lung = system: NCI-H522 lung
# NCI/ADR-RES ovarian = system: NCI/ADR-RES ovarian
# OVCAR-3 ovarian = system: OVCAR-3 ovarian
# OVCAR-4 ovarian = system: OVCAR-4 ovarian
# OVCAR-5 ovarian = system: OVCAR-5 ovarian
# OVCAR-8 ovarian = system: OVCAR-8 ovarian
# PC-3 prostate = system: PC-3 prostate
# RPMI-8226 leukemia = system: RPMI-8226 leukemia
# RXF 393 renal = system: RXF 393 renal
# SF-268 CNS = system: SF-268 CNS
# SF-295 CNS = system: SF-295 CNS
# SF-539 CNS = system: SF-539 CNS
# SK-MEL-2 melanoma = system: SK-MEL-2 melanoma
# SK-MEL-28 melanoma = system: SK-MEL-28 melanoma
# SK-MEL-5 melanoma = system: SK-MEL-5 melanoma
# SK-OV-3 ovarian = system: SK-OV-3 ovarian
# SN12C renal = system: SN12C renal
# SNB-19 CNS = system: SNB-19 CNS
# SNB-75 CNS = system: SNB-75 CNS
# SW-620 colon = system: SW-620 colon
# T-47D breast = system: T-47D breast
# TK-10 renal = system: TK-10 renal
# U251 CNS = system: U251 CNS
# UACC-257 melanoma = system: UACC-257 melanoma
# UACC-62 melanoma = system: UACC-62 melanoma
# UO-31 renal = system: UO-31 renal
# NCI-H460 lung = system: NCI-H460 lung
compound,measurement,setting,value
CC(C)=CCc1c(O)c(CC2=C(O)C(C)=C(O)C(CC=C(C)C)(C(=O)C(C)C)C2=O)c(O)c(C(=O)C(C)C)c1O (configuration not stated),TGI,786-0 renal,> 35.3 µM
same,TGI,A498 renal,> 38.9 µM
same,TGI,A549 NSCLC,> 47.7 µM
same,TGI,ACHN renal,> 40.5 µM
same,TGI,BT-549 breast,36.9 µM
same,TGI,CAKI-1 renal,> 47.7 µM
same,TGI,CCRF-CEM leukemia,> 15.1 µM
same,TGI,COLO 205 colon,> 47.7 µM
same,TGI,DU-145 prostate,> 47.7 µM
same,TGI,EKVX NSCLC,> 44.6 µM
same,TGI,HCC-2998 colon,> 38.9 µM
same,TGI,HCT-116 colon,19.8 µM
same,TGI,HCT-15 colon,> 47.7 µM
same,TGI,HL-60(TB) leukemia,> 47.7 µM
same,TGI,HOP-62 NSCLC,> 29.5 µM
same,TGI,HOP-92 NSCLC,25.5 µM
same,TGI,HS 578T breast,21.6 µM
same,TGI,HT29 colon,12.6 µM
same,TGI,IGROV1 ovarian,31.3 µM
same,TGI,K-562 leukemia,34 µM
same,TGI,KM12 colon,17.5 µM
same,TGI,LOX IMVI melanoma,> 28.1 µM
same,TGI,M14 melanoma,> 36.6 µM
same,TGI,MALME-3M melanoma,17.9 µM
same,TGI,MCF7 breast,> 45.3 µM
same,TGI,MDA-MB-231 breast,46.5 µM
same,TGI,MDA-MB-435,> 38.4 µM
same,TGI,MDA-N,38.1 µM
same,TGI,MOLT-4 leukemia,11.4 µM
same,TGI,NCI-H226 lung,21.8 µM
same,TGI,NCI-H23 lung,25.4 µM
same,TGI,NCI-H522 lung,21.5 µM
same,TGI,NCI/ADR-RES ovarian,27.5 µM
same,TGI,OVCAR-3 ovarian,> 38.1 µM
same,TGI,OVCAR-4 ovarian,> 47.7 µM
same,TGI,OVCAR-5 ovarian,> 42.5 µM
same,TGI,OVCAR-8 ovarian,31.2 µM
same,TGI,PC-3 prostate,> 47.7 µM
same,TGI,RPMI-8226 leukemia,> 31.2 µM
same,TGI,RXF 393 renal,> 47.7 µM
same,TGI,SF-268 CNS,> 47.7 µM
same,TGI,SF-295 CNS,> 38.1 µM
same,TGI,SF-539 CNS,> 47.7 µM
same,TGI,SK-MEL-2 melanoma,> 31.4 µM
same,TGI,SK-MEL-28 melanoma,> 31.7 µM
same,TGI,SK-MEL-5 melanoma,18.3 µM
same,TGI,SK-OV-3 ovarian,> 47.7 µM
same,TGI,SN12C renal,> 47.7 µM
same,TGI,SNB-19 CNS,> 31 µM
same,TGI,SNB-75 CNS,> 47.7 µM
same,TGI,SW-620 colon,> 44.7 µM
same,TGI,T-47D breast,33.7 µM
same,TGI,TK-10 renal,> 47.7 µM
same,TGI,U251 CNS,> 40.2 µM
same,TGI,UACC-257 melanoma,28.8 µM
same,TGI,UACC-62 melanoma,22.4 µM
same,TGI,UO-31 renal,19.5 µM
Nc1ccc2nc3ccc(=O)cc-3n(-c3ccccc3)c2c1,TGI,786-0 renal,> 100 µM
same,TGI,A498 renal,85.7 µM
same,TGI,A549 NSCLC,> 100 µM
same,TGI,ACHN renal,> 100 µM
same,TGI,BT-549 breast,> 100 µM
same,TGI,CCRF-CEM leukemia,> 100 µM
same,TGI,COLO 205 colon,> 100 µM
same,TGI,DU-145 prostate,> 100 µM
same,TGI,EKVX NSCLC,> 100 µM
same,TGI,HCC-2998 colon,> 100 µM
same,TGI,HCT-116 colon,> 100 µM
same,TGI,HCT-15 colon,> 100 µM
same,TGI,HL-60(TB) leukemia,> 100 µM
same,TGI,HOP-62 NSCLC,> 100 µM
same,TGI,HOP-92 NSCLC,> 100 µM
same,TGI,HS 578T breast,> 100 µM
same,TGI,HT29 colon,> 100 µM
same,TGI,IGROV1 ovarian,> 100 µM
same,TGI,K-562 leukemia,> 100 µM
same,TGI,KM12 colon,> 100 µM
same,TGI,M14 melanoma,> 100 µM
same,TGI,MALME-3M melanoma,> 100 µM
same,TGI,MCF7 breast,> 100 µM
same,TGI,MDA-MB-231 breast,> 100 µM
same,TGI,MDA-MB-435,> 100 µM
same,TGI,MDA-N,> 100 µM
same,TGI,MOLT-4 leukemia,> 100 µM
same,TGI,NCI-H226 lung,> 100 µM
same,TGI,NCI-H23 lung,> 100 µM
same,TGI,NCI-H460 lung,> 100 µM
same,TGI,NCI-H522 lung,> 100 µM
same,TGI,NCI/ADR-RES ovarian,> 100 µM
same,TGI,OVCAR-3 ovarian,> 100 µM
same,TGI,OVCAR-4 ovarian,> 100 µM
same,TGI,OVCAR-5 ovarian,> 100 µM
same,TGI,OVCAR-8 ovarian,> 100 µM
same,TGI,PC-3 prostate,> 100 µM
same,TGI,RPMI-8226 leukemia,> 100 µM
same,TGI,RXF 393 renal,> 100 µM
same,TGI,SF-268 CNS,> 100 µM
same,TGI,SF-295 CNS,> 100 µM
same,TGI,SF-539 CNS,> 100 µM
same,TGI,SK-MEL-2 melanoma,> 100 µM
same,TGI,SK-MEL-28 melanoma,> 100 µM
same,TGI,SK-MEL-5 melanoma,> 100 µM
same,TGI,SK-OV-3 ovarian,> 100 µM
same,TGI,SN12C renal,> 100 µM
same,TGI,SNB-19 CNS,> 100 µM
same,TGI,SNB-75 CNS,92.4 µM
same,TGI,SW-620 colon,> 100 µM
same,TGI,T-47D breast,> 100 µM
same,TGI,U251 CNS,> 100 µM
same,TGI,UACC-62 melanoma,> 100 µM
same,TGI,UO-31 renal,> 100 µM
COc1ccc(N2C(=O)C3c4[nH]c5ccc(OC)cc5c4C4CCC(C(C)C)CC4C3C2=O)cc1 (configuration not stated),TGI,786-0 renal,> 55.2 µM
same,TGI,A498 renal,> 92.5 µM
same,TGI,A549 NSCLC,> 100 µM
same,TGI,ACHN renal,> 100 µM
same,TGI,BT-549 breast,> 100 µM
same,TGI,CAKI-1 renal,> 100 µM
same,TGI,CCRF-CEM leukemia,> 30.3 µM
same,TGI,COLO 205 colon,> 100 µM
same,TGI,DU-145 prostate,> 100 µM
same,TGI,EKVX NSCLC,> 100 µM
same,TGI,HCC-2998 colon,> 100 µM
same,TGI,HCT-116 colon,> 100 µM
same,TGI,HCT-15 colon,> 100 µM
same,TGI,HL-60(TB) leukemia,> 100 µM
same,TGI,HOP-62 NSCLC,54.8 µM
same,TGI,HOP-92 NSCLC,> 100 µM
same,TGI,HS 578T breast,> 84.4 µM
same,TGI,HT29 colon,> 100 µM
same,TGI,IGROV1 ovarian,> 100 µM
same,TGI,K-562 leukemia,> 31.6 µM
same,TGI,KM12 colon,> 100 µM
same,TGI,LOX IMVI melanoma,> 100 µM
same,TGI,M14 melanoma,> 100 µM
same,TGI,MCF7 breast,> 100 µM
same,TGI,MDA-MB-231 breast,> 100 µM
same,TGI,MDA-MB-435,> 100 µM
same,TGI,MDA-N,> 100 µM
same,TGI,MOLT-4 leukemia,> 93.5 µM
same,TGI,NCI-H226 lung,> 100 µM
same,TGI,NCI-H23 lung,> 100 µM
same,TGI,NCI-H460 lung,> 100 µM
same,TGI,NCI-H522 lung,> 100 µM
same,TGI,NCI/ADR-RES ovarian,> 100 µM
same,TGI,OVCAR-3 ovarian,> 100 µM
same,TGI,OVCAR-4 ovarian,> 100 µM
same,TGI,OVCAR-5 ovarian,> 100 µM
same,TGI,OVCAR-8 ovarian,> 100 µM
same,TGI,PC-3 prostate,> 100 µM
same,TGI,RPMI-8226 leukemia,> 100 µM
same,TGI,RXF 393 renal,> 100 µM
same,TGI,SF-268 CNS,> 74.5 µM
same,TGI,SF-295 CNS,> 100 µM
same,TGI,SK-MEL-2 melanoma,> 100 µM
same,TGI,SK-MEL-28 melanoma,> 100 µM
same,TGI,SK-MEL-5 melanoma,> 100 µM
same,TGI,SK-OV-3 ovarian,> 100 µM
same,TGI,SN12C renal,> 100 µM
same,TGI,SNB-19 CNS,99.4 µM
same,TGI,SNB-75 CNS,> 65.5 µM
same,TGI,SW-620 colon,> 100 µM
same,TGI,T-47D breast,> 100 µM
same,TGI,TK-10 renal,> 100 µM
same,TGI,U251 CNS,> 100 µM
same,TGI,UACC-257 melanoma,> 100 µM
same,TGI,UACC-62 melanoma,> 31.6 µM
same,TGI,UO-31 renal,> 100 µM
